Test results: US7399769B2, “Aryl-isoxazol-4-yl-imidazo[1,5-a]pyridine derivatives” (Hoffmann-La Roche Inc., priority 2005, dated 2008)

Target: T1, human GABA A receptor α5β3γ2 (hα5) (Homo sapiens, UniProt P18507+P31644)
T1 construct: expressed in transfected cells; host or cells: HEK293 (transient transfection); membranes prepared from cell pellets
Test: [3H]flumazenil competition binding, human GABA A α5β3γ2 receptors in HEK293 cells
Conditions: displacement of [3H]flumazenil 0.5 nM; HEK293 cells transiently transfected with human receptors; mean of two determinations
Method: Membrane Preparation and Binding Assay
The affinity of compounds at GABA A receptor subtypes was measured by competition for [3H]flumazenil (85 Ci/mmol; Roche) binding to HEK293 cells expressing rat (stably transfected) or human (transiently transfected) receptors of composition α1β3γ2, α2β3γ2, α3β3γ2 and α5β3γ2.
Cell pellets were suspended in Krebs-tris buffer (4.8 mM KCl, 1.2 mM CaCl2, 1.2 mM MgCl2, 120 mM NaCl, 15 mM Tris; pH 7.5; binding assay buffer), homogenized by polytron for ca. 20 sec on ice and centrifuged for 60 min at 4° C. (50000 g; Sorvall, rotor: SM24=20000 rpm). The cell pellets were resuspended in Krebs-tris buffer and homogenized by polytron for ca. 15 sec on ice. Protein was measured (Bradford method, Bio-Rad) and aliquots of 1 mL were prepared and stored at −80° C.
Radioligand binding assays were carried out in a volume of […] (96-well plates) which contained […] of cell membranes, [3H]flumazenil at a concentration of 1 nM for α1, α2, α3 subunits and 0.5 nM for α5 subunits and the test compound in the range of […]. Nonspecific binding was defined by 10^−5 M diazepam and typically represented less than 5% of the total binding. […] After drying, filter-retained radioactivity was detected by liquid scintillation counting. Ki values were calculated using Excel-Fit (Microsoft) and are the means of two determinations. […]

Question: With `Cc1onc(-c2ccccc2)c1-c1ncc2ccccn12` [Example 1, 3-(5-Methyl-3-phenyl-isoxazol-4-yl)-imidazo[1,5-a]pyridine] as the compound, how does the Ki read?
Answer: The Ki was 77.9 nM.
